Blank lines part the entries; values can stand above or below the molecule they belong to. Where a SMILES comes first, the peptide text is derived from it. Where no end group is shown, it is not given here. [ ]: non-standard residue; d: D form. ξ: configuration not given here. ξαMeBip(2'-Et,4'-OMe) = CCc1cc(OC)ccc1-c1ccc(CC(C)(N)C(=O)O)cc1; αMePhe(2,6-F2) = C[C@](N)(Cc1c(F)cccc1F)C(=O)O; ξαMePhe(2,6-F2) = CC(N)(Cc1c(F)cccc1F)C(=O)O; αMePhe(2-F) = C[C@](N)(Cc1ccccc1F)C(=O)O; αMeBip(OMe) = alpha-methylated Bip(OMe); ξαMePhe(2-F) = CC(N)(Cc1ccccc1F)C(=O)O; hhPhe = N[C@@H](CCCc1ccccc1)C(=O)O; ξhhPhe = NC(CCCc1ccccc1)C(=O)O; ξαMeD = CC(N)(CC(=O)O)C(=O)O; αMeP = C[C@@]1(C(=O)O)CCCN1; ξαMeP = CC1(C(=O)O)CCCN1; Ac5c = NC1(C(=O)O)CCCC1; Ac3c = NC1(C(=O)O)CC1; Aib = CC(C)(N)C(=O)O
Experiments:
[1] = tested on: RIN5F (Rat Insulinoma) cells; experiment: In vitro glucose-dependent insulin secretion (RIN5F cell assay); assay type: cell-based; conditions: 16.7-mM glucose load, n = 3, mean ± S.D.
Method: RIN5F (Rat Insulinoma) cells were cultured in RPMI 1640 medium supplemented with sodium pyruvate (1 mM) HEPES and Glucose (4.5 g/L) in a humidified incubator (5% CO2), at 37° C. After trypsinization, RIN5F cells were seeded at a concentration of 0.2×10^6 cells per well, in 12 well plates. The cells were grown overnight to 80% confluence and insulin secretion experiments were performed as follows (Montrose-Rafizadeh C., et al., Mol. Cell. Endo. 1997, 130, 109.; Wang, X., et al., Endocrinology 2001, 5, 1820).
The cells were washed once with PBS solution followed by 40 min. incubation in fresh Krebs-Ringer Balanced Buffer containing NaCl (115 mmol/L), KCl (4.7 mmol/L), CaCl2 (1.28 mmol/L), MgSO4.7H2O (1.2 mmol/L), KH2PO4 (1.2 mmol/L), NaHCO3 (10 mmol/L) and HEPES (25 mmol/L), containing Glucose (1.1 mM) and B.S.A (0.5%), pH 7.4. The buffer was replaced after 40 min. and the cells were incubated (37° C.) with the test peptidomimetics, at different concentration, for 30 min., both in the presence (16.7 mM) and absence (0 mM) of glucose load. The supernatant was collected and the insulin amount was measured by ultra sensitive Rat insulin ELISA kit (Crystal Chem, IL). The protein was estimated in the supernatant using Bicinchoninic Acid kit, according to the manufacturer's protocol (Sigma Aldrich, MO). The total insulin content obtained in Pico-gram (pg) was divided with the total protein (μg) in order to normalize for differences in cell density between wells.

human glucagon receptor = human glucagon receptor (human, UniProt P47871 26-477); experiment: cell-based or functional assay
Chain of human glucagon receptor (P47871 26-477): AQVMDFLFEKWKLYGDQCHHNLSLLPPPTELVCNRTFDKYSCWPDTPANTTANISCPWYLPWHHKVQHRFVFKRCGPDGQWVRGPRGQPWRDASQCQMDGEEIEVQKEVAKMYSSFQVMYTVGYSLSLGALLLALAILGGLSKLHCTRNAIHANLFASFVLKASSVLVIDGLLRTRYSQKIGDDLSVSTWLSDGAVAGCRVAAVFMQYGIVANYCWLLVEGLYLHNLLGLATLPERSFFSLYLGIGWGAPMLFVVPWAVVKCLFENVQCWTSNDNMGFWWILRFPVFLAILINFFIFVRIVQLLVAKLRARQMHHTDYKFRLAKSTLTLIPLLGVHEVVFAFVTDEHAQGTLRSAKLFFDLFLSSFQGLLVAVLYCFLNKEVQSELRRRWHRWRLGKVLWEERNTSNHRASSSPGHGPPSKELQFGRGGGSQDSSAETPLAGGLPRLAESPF

Molecule: CCc1cc(OC)ccc1-c1ccc(CC(C)(NC(=O)[C@H](CC(=O)O)NC(=O)[C@H](CO)NC(=O)[C@@H](NC(=O)[C@H](Cc2ccccc2)NC(=O)[C@@H](NC(=O)CNC(=O)[C@H](CCC(N)=O)NC(=O)[C@H](CO)NC(=O)[C@H](Cc2c[nH]cn2)NC(=O)[C@@H](N)C(C)C)[C@@H](C)O)[C@@H](C)O)C(=O)NC(CCCc2ccccc2)C(N)=O)cc1 (some centres unmarked) [compound 5] (H-VHSQGTFTSD[ξαMeBip(2'-Et,4'-OMe)][ξhhPhe]-NH2)
Insulin secretion ([1]; 0.1 nM test compd.): 12.1 ± 0.51 pg/µg/h
Insulin secretion ([1]; 1 nM test compd.): 14.1 ± 0.19 pg/µg/h
Insulin secretion ([1]; 10 nM test compd.): 28.1 ± 0.29 pg/µg/h

Molecule: CCc1cc(OC)ccc1-c1ccc(CC(C)(NC(=O)[C@H](CC(=O)O)NC(=O)[C@H](CO)NC(=O)[C@@H](NC(=O)[C@H](Cc2ccccc2)NC(=O)[C@@H](NC(=O)CNC(=O)[C@H](CCC(N)=O)NC(=O)C2(C)CCCN2C(=O)[C@H](Cc2c[nH]cn2)NC(=O)[C@@H](N)C(C)C)[C@@H](C)O)[C@@H](C)O)C(=O)NC(CCCc2ccccc2)C(N)=O)cc1 (some centres unmarked) [compound 8] (H-VH[ξαMeP]QGTFTSD[ξαMeBip(2'-Et,4'-OMe)][ξhhPhe]-NH2)
Insulin secretion ([1]; 0.1 nM test compd.): 12.6 ± 0.25 pg/µg/h
Insulin secretion ([1]; 1 nM test compd.): 15.3 ± 0.31 pg/µg/h
Insulin secretion ([1]; 10 nM test compd.): 29.7 ± 0.48 pg/µg/h

Molecule: CCc1cc(OC)ccc1-c1ccc(CC(C)(NC(=O)[C@H](CC(=O)O)NC(=O)[C@H](CO)NC(=O)[C@@H](NC(=O)[C@H](Cc2ccccc2)NC(=O)[C@@H](NC(=O)CNC(=O)[C@H](CCC(N)=O)NC(=O)C2(NC(=O)[C@H](Cc3c[nH]cn3)NC(=O)[C@@H](N)C(C)C)CC2)[C@@H](C)O)[C@@H](C)O)C(=O)NC(CCCc2ccccc2)C(N)=O)cc1 (some centres unmarked) [compound 10] (H-VH[Ac3c]QGTFTSD[ξαMeBip(2'-Et,4'-OMe)][ξhhPhe]-NH2)
Insulin secretion ([1]; 0.1 nM test compd.): 12.0 ± 0.14 pg/µg/h
Insulin secretion ([1]; 1 nM test compd.): 14.3 ± 0.12 pg/µg/h
Insulin secretion ([1]; 10 nM test compd.): 27.8 ± 0.32 pg/µg/h

Molecule: CCc1cc(OC)ccc1-c1ccc(CC(C)(NC(=O)[C@H](CC(=O)O)NC(=O)[C@H](CO)NC(=O)[C@@H](NC(=O)[C@H](Cc2ccccc2)NC(=O)[C@@H](NC(=O)CNC(=O)[C@H](CCC(=O)O)NC(=O)C2(NC(=O)[C@H](Cc3c[nH]cn3)NC(=O)[C@@H](N)C(C)C)CCCC2)[C@@H](C)O)[C@@H](C)O)C(=O)NC(CCCc2ccccc2)C(N)=O)cc1 (some centres unmarked) [compound 15] (H-VH[Ac5c]EGTFTSD[ξαMeBip(2'-Et,4'-OMe)][ξhhPhe]-NH2)
Insulin secretion ([1]; 0.1 nM test compd.): 15.3 ± 0.19 pg/µg/h
Insulin secretion ([1]; 1 nM test compd.): 21.2 ± 0.11 pg/µg/h
Insulin secretion ([1]; 10 nM test compd.): 35.5 ± 0.19 pg/µg/h

Molecule: CCc1cc(OC)ccc1-c1ccc(CC(C)(NC(=O)[C@H](CC(=O)O)NC(=O)[C@H](CO)NC(=O)[C@@H](NC(=O)C(C)(Cc2ccccc2F)NC(=O)[C@@H](NC(=O)CNC(=O)[C@H](CCC(N)=O)NC(=O)C2(C)CCCN2C(=O)[C@H](Cc2c[nH]cn2)NC(=O)[C@@H](N)C(C)C)[C@@H](C)O)[C@@H](C)O)C(=O)NC(CCCc2ccccc2)C(N)=O)cc1 (some centres unmarked) [compound 20] (H-VH[ξαMeP]QGT[ξαMePhe(2-F)]TSD[ξαMeBip(2'-Et,4'-OMe)][ξhhPhe]-NH2)
Insulin secretion ([1]; 0.1 nM test compd.): 11.1 ± 0.12 pg/µg/h
Insulin secretion ([1]; 1 nM test compd.): 13.1 ± 0.13 pg/µg/h
Insulin secretion ([1]; 10 nM test compd.): 19.0 ± 0.16 pg/µg/h

Molecule: CCc1cc(OC)ccc1-c1ccc(CC(C)(NC(=O)[C@H](CC(=O)O)NC(=O)[C@H](CO)NC(=O)[C@@H](NC(=O)C(C)(Cc2c(F)cccc2F)NC(=O)[C@@H](NC(=O)CNC(=O)[C@H](CCC(N)=O)NC(=O)[C@H](CO)NC(=O)[C@H](Cc2c[nH]cn2)NC(=O)[C@@H](N)C(C)C)[C@@H](C)O)[C@@H](C)O)C(=O)NC(CCCc2ccccc2)C(N)=O)cc1 (some centres unmarked) [compound 25] (H-VHSQGT[ξαMePhe(2,6-F2)]TSD[ξαMeBip(2'-Et,4'-OMe)][ξhhPhe]-NH2)
Insulin secretion ([1]; 0.1 nM test compd.): 12.6 ± 0.20 pg/µg/h
Insulin secretion ([1]; 1 nM test compd.): 15.9 ± 0.31 pg/µg/h
Insulin secretion ([1]; 10 nM test compd.): 28.4 ± 0.11 pg/µg/h

Molecule: CCc1cc(OC)ccc1-c1ccc(CC(C)(NC(=O)C(C)(CC(=O)O)NC(=O)[C@H](CO)NC(=O)[C@@H](NC(=O)[C@H](Cc2ccccc2)NC(=O)[C@@H](NC(=O)CNC(=O)[C@H](CCC(N)=O)NC(=O)C2(C)CCCN2C(=O)[C@H](Cc2c[nH]cn2)NC(=O)[C@@H](N)C(C)C)[C@@H](C)O)[C@@H](C)O)C(=O)NC(CCCc2ccccc2)C(N)=O)cc1 (some centres unmarked) [compound 60] (H-VH[ξαMeP]QGTFTS[ξαMeD][ξαMeBip(2'-Et,4'-OMe)][ξhhPhe]-NH2)
Insulin secretion ([1]; 0.1 nM test compd.): 15.6 ± 0.33 pg/µg/h
Insulin secretion ([1]; 1 nM test compd.): 21.8 ± 0.16 pg/µg/h
Insulin secretion ([1]; 10 nM test compd.): 35.6 ± 0.26 pg/µg/h

Molecule: CCc1cc(OC)ccc1-c1ccc(CC(C)(NC(=O)C(C)(CC(=O)O)NC(=O)[C@H](CO)NC(=O)[C@@H](NC(=O)C(C)(Cc2ccccc2F)NC(=O)[C@@H](NC(=O)CNC(=O)[C@H](CCC(N)=O)NC(=O)[C@H](C)NC(=O)[C@H](Cc2c[nH]cn2)NC(=O)[C@@H](N)C(C)C)[C@@H](C)O)[C@@H](C)O)C(=O)NC(CCCc2ccccc2)C(N)=O)cc1 (some centres unmarked) [compound 66] (H-VHAQGT[ξαMePhe(2-F)]TS[ξαMeD][ξαMeBip(2'-Et,4'-OMe)][ξhhPhe]-NH2)
Insulin secretion ([1]; 0.1 nM test compd.): 16.5 ± 0.12 pg/µg/h
Insulin secretion ([1]; 1 nM test compd.): 22.7 ± 0.17 pg/µg/h
Insulin secretion ([1]; 10 nM test compd.): 36.5 ± 0.05 pg/µg/h

cAMP production (pmol/ml/µg prt) with saturated glucagon peptide, at 1 nM (human glucagon receptor): 19 pmol/ml/µg prt
cAMP production (pmol/ml/µg prt) with saturated glucagon peptide, at 10 nM (human glucagon receptor): 17 pmol/ml/µg prt
cAMP production (pmol/ml/µg prt) with saturated glucagon peptide, at 100 nM (human glucagon receptor): 15 pmol/ml/µg prt
cAMP production (pmol/ml/µg prt) with saturated glucagon peptide, at 1 µM (human glucagon receptor): 14 pmol/ml/µg prt
cAMP production (pmol/ml/µg prt) with saturated glucagon peptide, at 10 µM (human glucagon receptor): 12 pmol/ml/µg prt
Molecule: VVH[Aib]EGT[αMePhe(2,6-F2)]TSD[αMeBip(OMe)][hhPhe]-NH2 [Seq. ID. No. 227]

cAMP production (pmol/ml/µg prt) with saturated glucagon peptide, at 1 nM (human glucagon receptor): 6 pmol/ml/µg prt
cAMP production (pmol/ml/µg prt) with saturated glucagon peptide, at 10 nM (human glucagon receptor): 5 pmol/ml/µg prt
cAMP production (pmol/ml/µg prt) with saturated glucagon peptide, at 100 nM (human glucagon receptor): 2 pmol/ml/µg prt
cAMP production (pmol/ml/µg prt) with saturated glucagon peptide, at 1 µM (human glucagon receptor): 0 pmol/ml/µg prt
cAMP production (pmol/ml/µg prt) with saturated glucagon peptide, at 10 µM (human glucagon receptor): 0 pmol/ml/µg prt
B1: Seq. ID. No. 211 (peptide)
peptide: VVH[Aib]EGTFTSD[αMeBip(OMe)][hhPhe]
modifications: not fully specified (C-terminus); printed as VVH-Aib-EGTFTSD-(αMe-Bip(OMe))-(APPA)

cAMP production (pmol/ml/µg prt) with saturated glucagon peptide, at 1 nM (human glucagon receptor): 0 pmol/ml/µg prt
cAMP production (pmol/ml/µg prt) with saturated glucagon peptide, at 10 nM (human glucagon receptor): 0 pmol/ml/µg prt
cAMP production (pmol/ml/µg prt) with saturated glucagon peptide, at 100 nM (human glucagon receptor): 0 pmol/ml/µg prt
cAMP production (pmol/ml/µg prt) with saturated glucagon peptide, at 1 µM (human glucagon receptor): 0 pmol/ml/µg prt
cAMP production (pmol/ml/µg prt) with saturated glucagon peptide, at 10 µM (human glucagon receptor): 0 pmol/ml/µg prt
Molecule: VVH[αMeP]QGT[αMePhe(2-F)]TSD[αMeBip(OMe)][hhPhe]-NH2 [Seq. ID. No. 216]

cAMP production (pmol/ml/µg prt) with saturated glucagon peptide, at 1 nM (human glucagon receptor): 5 pmol/ml/µg prt
cAMP production (pmol/ml/µg prt) with saturated glucagon peptide, at 10 nM (human glucagon receptor): 2 pmol/ml/µg prt
cAMP production (pmol/ml/µg prt) with saturated glucagon peptide, at 100 nM (human glucagon receptor): 0 pmol/ml/µg prt
cAMP production (pmol/ml/µg prt) with saturated glucagon peptide, at 1 µM (human glucagon receptor): 0 pmol/ml/µg prt
cAMP production (pmol/ml/µg prt) with saturated glucagon peptide, at 10 µM (human glucagon receptor): 0 pmol/ml/µg prt
Molecule: VVHSEGT[αMePhe(2-F)]TSD[αMeBip(OMe)][hhPhe]-NH2 [Seq. ID. No. 217]
